According to patent publication US20200405885A1, “MAGNETIC RESONANCE IMAGING (MRI) CONTRAST AGENTS AND USE THEREOF” (TECHNION RESEARCH & DEVELOPMENT FOUNDATION LTD., priority 2017, published 2020):

Tests used:
[1] = Phantom measurement in X-ray micro-CT scanner; details: 0.1 mM dissolved in water vs control (0 mM)
Experimental: (§1) FIGS. 4A-C present the characterization of the MFS-agent 2 using different imaging modalities; (4A) Phantom T1 MRI-measurement (Bruker, ASPECT 1 T MRI scanner, USA) of control (0 mM) and MFS-agent (0.1 mM dissolved in water), (4B) Emission spectra of the MFS measured by confocal microscope (LSM-880, Zeiss, Germany) with 561 nm laser excitation (peak emission (nm): 617), (4C) and Phantom measurement in X-ray micro-Computed Tomography scanner (Bruker, Skyscan micro-CT, USA) of control (0 mM) and MFS-agent (0.1 mM dissolved in water).
(§2) To examine the multi-functionality of the complete MFS-agent 2 (FIG. 2B), compound 2 was solubilized in water (0.1 mM) and imaged via three distinct imaging modalities (FIG. 4A-C). […] This is a highly desirable trait, for a molecule that will be delivered through the blood stream. […] Red fluorescence emission was determined by using spectral analysis of a confocal microscope (FIG. 4B).

[2] = Emission spectrum by confocal microscope; type: physicochemical; details: 561 nm laser excitation
Experimental: as §1, §2

[3] = Phantom T1 MRI measurement (1 T scanner); details: 0.1 mM dissolved in water vs control (0 mM), 1 T MRI scanner
Experimental: as §1, §2

[4] = Solubilization of MFS-agent in water; type: physicochemical; details: 0.1 mM in water, no DMSO or other solvents
Experimental: as §2

peak emission [2]: 617 nm | solubility in water [4]: dissolved easily in water
Structure (SMILES): Nc1nc(OCc2ccc(CNC(=O)NCCOCCN(CCOCCn3cc(CNC(=O)CN4CCN(CC(=O)O)CCN(CC(=O)O)CCN(CC(=O)O)CC4)nn3)S(=O)(=O)c3ccc(C4=c5cc6c7c(c5Oc5c4cc4c8c5CCCN8CCC4)CCC[N+]=7CCC6)c(S(=O)(=O)O)c3)cc2)c2nc[nH]c2n1 [compound 2]
CT signal (X-ray attenuation) [1]: very strong CT signal | T1 MRI contrast [3]: very bright contrast
